Like-named read-outs stand apart in the source and are kept apart here. d = 2'-deoxy (DNA); m = 2'-O-methyl
How the values were obtained:
A549b cells [1] = experiment: Anti-proliferative activity of a drug on A549b cells pretreated with anti-BRCA2 OLIGO/siRNA; type: cell-based; conditions: Homo sapiens, curves conservatively extrapolated, read-out: concentration of olaparib required to inhibit proliferation of A549b cells by 50% (IC50)
Description: OLIGOs were introduced into cells with the use of Lipofectamine 2000 (LFA2K) (Invitrogen, Burlington, Ontario, Canada). OLIGOs were mixed with LFA2K at a ratio of 0.2 μg/ml per 10 nM OLIGO. The mixture was prepared at 11× the final concentration to which cells were exposed, so that 200 μL was added to 2 mL of medium in which cells were plated. After incubating at room temperature for 20 minutes, according to manufacturer's instructions, the OLIGOs were added to the cell medium. The OLIGO/LFA2K mix was then incubated (37° C.) on the cells for 4 hours, after which a second volume of medium was added. Cells were then incubated for 20 hours. […]
For cells treated with the drug olaparib, for the purposes of determining whether inhibitory activity was enhanced by the OLIGO pretreatment, olaparib was added at this time, in concentrations of from 0.01 μM to 3 μM. […] Following a further 4-day incubation, the proliferation of the treated cells (fold-increase in cell number) was calculated as a percentage of that of control cells. […] As indicated in Example 1, for the purpose of determining the anti-proliferative effect of antisense OLIGOs alone, the proliferation of cells treated with antisense OLIGOs was calculated as a percent of that of cells treated with an equivalent concentration of non-complementary control OLIGO (in this case OLIGO 32). […]

A549b cells [2] = experiment: Proliferation of A549b cells after transfection with antisense OLIGO/siRNA (cell counting, % of control OLIGO); type: cell-based, human; conditions: 20 nM; compared to non-targeting OLIGO 491S; preliminary assay, FIG. 12
Description: Cultured cell lines were maintained in minimum essential medium a with nucleosides plus 10% fetal bovine serum and penicillin (50 units/mL)/streptomycin (50 mg/L) (growth medium). Cultures were incubated in a humidified atmosphere of 5% CO2 at 37° C. Cultured cell lines were maintained and cytotoxicity assays conducted as described previously (3). Rapidly proliferating cells were utilized for establishing cultures of experimental cells, which were allowed to plate overnight in 25-cm^2 flasks prior to manipulation. […]
OLIGOs were introduced into cells with the use of Lipofectamine 2000 (LFA2K) (Invitrogen, Burlington, Ontario, Canada). […] Following the 4-day incubation, the proliferation of the treated cells (fold-increase in cell number) was calculated as a percentage of that of control cells. […] For the purpose of determining the anti-proliferative effect of antisense OLIGOs, the proliferation of cells treated with antisense OLIGOs was calculated as a percent of that of cells treated with an equivalent concentration of non-complementary control OLIGO (in this case OLIGO 32) mixed with an equivalent amount of LFA2K.
These experiments were carried out essentially as described in Example 2, after which one volume of medium was added, and cells were further incubated for 20 hours. […] Cells were incubated for 4 days, at which time cell number was counted. […]

[3] = tested on: thymidylate synthase mRNA; experiment: RT-qPCR of TS mRNA 24 h after OLIGO transfection of A549 cells; type: cell-based, human; conditions: 20 nM OLIGO, 24 h post-transfection, FIG. 16
Description: (§1) Briefly, A549 cells seeded at a density of 2.0×10^5 per flask were transfected with 20 nM of OLIGO specific for each target or control OLIGO using Lipofectamine 2000 as the transfection reagent. Twenty four hours post-transfection mRNA was extracted and reverse transcribed into cDNA. RT-qPCR was performed for target mRNA levels using TaqMan reagents according to established protocols.

BRCA2 mRNA = experiment: RT-qPCR of BRCA2 mRNA 24 h after OLIGO transfection of A549 cells; type: cell-based, human; conditions: 20 nM OLIGO, 24 h post-transfection, FIG. 16
Description: as §1

Molecule	IC50 (A549b cells [1]; in the absence of BR1)	IC50 (A549b cells [1]; in the presence of BR1 (pretreatment))	relative proliferation (A549b cells [2])	effect on TS mRNA level [3]	effect on BRCA2 mRNA level (BRCA2 mRNA)
O=C(c1cc(Cc2n[nH]c(=O)c3ccccc23)ccc1F)N1CCN(C(=O)C2CC2)CC1 [olaparib]	~5 µM	~0.05 µM	–	–	–
OLIGO 83: antisense to 3′-untranslated region of thymidylate synthase mRNA, 5′-gccaguGGCAACATccuuaa-3′ (SEQ ID NO: 25), fully phosphorothioated (antisense GCCAGUGGCAACATCCUUAA; sugars from the 5' end m6 d8 m6, all phosphorothioate, methylation of C not given here)	–	–	approximately 20%	reduce	no significant effect
